Source: publication PMC2981624 (Chemical research in toxicology, 2010)
“Also recorded” adds a separate entry of the source. Like-named read-outs stand apart in the source and are kept apart here.

Key:
[1] = test system: primary normal human lung cells; details: 0.1 to 10 μM; cited from earlier work
[2] = test system: Salmonella typhimurium strain TA98; details: cited from earlier work
[3] = test system: Salmonella typhimurium strain TA100; details: 10 and 100 μM (Figure 1)
[4] = test system: Salmonella typhimurium strain TA100; details: cited from earlier work
[5] = test system: Salmonella typhimurium strain TA98; details: for concentration dependence of mutagenicity (revertants/plate): 0.1-100 μM
[6] = test system: lung adenoma; details: cited from earlier work
[7] = 0.5 mg human lung microsomes, presence of NADPH
[8] = 2 mg rat liver S9, presence of NADPH
[9] = 10 μM, 50 pmol 1A1 Supersomes, presence of NADPH
[10] = 10 μM, 50 pmol recombinant 2A13, presence of NADPH
[11] = 0.5 mg human lung microsomes, presence of NADPH, equal concentrations

**Q.** With Cc1c[nH]c2ccccc12 [3MI, 3-methylindole] as the molecule, how does the “induction of markers of carcinogenesis” value [1] read?
**A.** induce markers of carcinogenesis, including DNA damage and p53 nuclear localization

**Q.** And the mutagenicity ([2]; purified CYP2F3)?
**A.** mutagenic

**Q.** And the mutagenicity ([2]; rat liver S9 fractions)?
**A.** not mutagenic

**Q.** What about the “mutagenicity (revertants/plate)” value [3, 7] of the same molecule?
**A.** failed to increase mutagenesis at any concentration

**Q.** What about the “mutagenicity (revertants/plate)” value [3, 8] of the same molecule?
**A.** failed to increase mutagenesis at any concentration

**Q.** What about the mutagenicity ([4]; rat liver S9) of the same molecule?
**A.** not mutagenic

**Q.** What about the “mutagenicity (revertants/plate)” value [5, 9] of the same molecule?
**A.** statistically significant increases in mutagenicity

**Q.** What about the “mutagenicity (number of mutants)” value ([5]; 10 μM, 50 pmol purified 2F3, presence of NADPH) of the same molecule?
**A.** significant increase in the number of mutants

**Q.** What about the “mutagenicity (revertants/plate)” value [5, 10] of the same molecule?
**A.** statistically significant increases in the number of revertants per plate; also recorded: highest levels of mutagenicity

**Q.** What about the “cytotoxicity to bacteria (density of background lawn)” value ([5]; 100 μM, 0.5 mg human lung microsomes) of the same molecule?
**A.** cytotoxic

**Q.** What about the “concentration dependence of mutagenicity (revertants/plate)” value [5, 7] of the same molecule?
**A.** increasing mutagenicity up through the 10 μM concentration, but lower revertants/plate with the highest concentration (100 μM)

**Q.** And the “mutagenicity compared to BaP” value [5, 11]?
**A.** more mutagenic than BaP was at the 1.0 μM (p=0.006) and 10 μM (p=0.005) concentrations, although not at the 0.1 μM (p=0.1) or 100 μM (p=0.9) concentrations

**Q.** And the “mutagenicity compared to NNK” value [5, 11]?
**A.** significantly more mutagenic than NNK was at the 0.1 μM (p=0.05), 1.0 μM (p=0.002), and 10 μM (p=0.007) concentrations, although not at the 100 μM (p=0.8) concentration

**Q.** And the “mutagenicity (revertants/plate)” value ([5]; 2 mg human liver S9, presence of NADPH)?
**A.** Neither incubation of 3MI with Salmonella typhimurium strain TA98 and 2 mg human liver S9, or 2 mg rat liver S9 was mutagenic; also recorded: failed to produce 3MI-mediated mutagenesis

**Q.** And the “mutagenicity (revertants/plate)” value [5, 8]?
**A.** Neither incubation of 3MI with Salmonella typhimurium strain TA98 and 2 mg human liver S9, or 2 mg rat liver S9 was mutagenic; also recorded: failed to produce 3MI-mediated mutagenesis

**Q.** For COc1c2occc2cc2ccc(=O)oc12 [8-MOP, 8-methoxypsoralen], which chemopreventive effect [6] is on record?
**A.** chemopreventive effect

**Q.** Which results are given for Nn1nnc2ccccc21 [ABT, 1-aminobenzotriazole, reference compound]?
**A.** mutagenicity of inhibitor alone ([5]; 0.5 mM ABT alone, 0.5 mg human lung microsomes): did not prove to be mutagenic; effect on 3MI-mediated mutagenesis ([5]; 0.5 mM ABT with 100 μM 3MI, 0.5 mg human lung microsomes, presence of NADPH): completely inhibited the mutagenesis; effect on B(a)P-mediated mutagenesis ([5]; 0.5 mM ABT with 100 μM B(a)P, 0.5 mg human lung microsomes, presence of NADPH): completely inhibited the mutagenesis; effect on NNK-mediated mutagenesis ([5]; 0.5 mM ABT with 100 μM NNK, 0.5 mg human lung microsomes, presence of NADPH): completely inhibited the mutagenesis

**Q.** Which “mutagenicity (revertants/plate)” value [3, 7] does the source give for CN(CCCC(=O)c1cccnc1)N=O [NNK, 4-(methylnitrosamino)-1-(3-pyridyl)-1-butanone, reference compound] here?
**A.** failed to increase mutagenesis at any concentration

**Q.** And the “mutagenicity (revertants/plate)” value [3, 8]?
**A.** failed to increase mutagenesis at any concentration

**Q.** What about the “base pair substitution mutations” value [4] of the same molecule?
**A.** does not cause base pair substitution mutations

**Q.** What about the “mutagenicity (revertants/plate)” value [5, 9] of the same molecule?
**A.** did not result in an increased number of revertants

**Q.** And the “mutagenicity (revertants/plate)” value [5, 10]?
**A.** statistically significant increases in the number of revertants per plate

**Q.** What about the “concentration dependence of mutagenicity (revertants/plate)” value [5, 7] of the same molecule?
**A.** mutagenicity increased in a concentration-dependent manner up through the 100 μM concentration
